Data reported in patent US20220073536A1 (Rigel Pharmaceuticals, Inc., priority 2003, published 2022).

Legend:
[1] = test system: cultured human mast cells (CHMC); assay: CHMC low cell density IgE activation: tryptase assay; type: cell-based; conditions: low cell density CHMC, IgE activation, tryptase release
In short: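 CHMC at 1000–1500 cells/well were preincubated 1 hr at 37° C., stimulated with anti-IgE for 30 minutes at 37° C., then pelleted. Supernatant tryptase was measured with a fluorogenic substrate after 30 min at room temperature, against un-stimulated control wells.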

[2] = test system: cultured human mast cells (CHMC); assay: CHMC low cell density ionomycin activation: tryptase assay; type: cell-based; conditions: low cell density CHMC, tryptase release, 3 point, read-out: LD Tryptase, CHMC, Iono, 3 pt
[3] = 3 point, read-out: LD Tryptase, CHMC, IgE, 3 pt
[4] = 8 point, read-out: LD Tryptase, CHMC, IgE, 8 pt
[5] = Homo sapiens, Mast cell, 3 point, read-out: LD Tryptase, CHMC, IgE, 3 pt
[6] = Homo sapiens, Mast cell, 8 point, read-out: LD Tryptase, CHMC, IgE, 8 pt

Compound | IC50 [1, 3] [µM] | IC50 [1, 4] [µM] | IC50 [2] [µM] | IC50 [1, 5] [µM] | IC50 ([2]; Homo sapiens, Mast cell) [µM] | IC50 [1, 6] [µM]
Cc1cc(N(C)c2nc(Cl)ncc2F)cc(C)c1Cl [Compound 626] | – | – | – | > 10 | < 10 | –
CN(c1ccc2c(c1)OC(F)(F)C(F)(F)O2)c1nc(Cl)ncc1F [Compound 627] | > 10 | – | > 10 | – | – | –
CN(c1ccc2c(c1)OC(F)(F)O2)c1nc(Cl)ncc1F [Compound 628] | > 10 | – | > 10 | – | – | –
Fc1cnc(Nc2ccc3cc[nH]c3c2)nc1Nc1ccc(Cl)c(C(F)(F)F)c1 [Compound 629, N4-(4-Chloro-3-trifluoromethylphenyl)-5-fluoro-N2-(indol-6-yl)-2,4-pyrimidinediamine] | – | – | – | < 10 | > 10 | < 10
COc1cc(Nc2nc(Nc3ccc4cc[nH]c4c3)ncc2F)ccc1Cl [Compound 630, N4-(4-Chloro-3-methoxyphenyl)-5-fluoro-N2-(indol-6-yl)-2,4-pyrimidinediamine] | – | – | – | < 10 | > 10 | < 10
CN(c1ccc2c(c1)OC(F)(F)C(F)(F)O2)c1nc(Nc2cccc(-c3ncco3)c2)ncc1F [Compound 634] | > 10 | < 10 | > 10 | – | – | –
CNC(=O)COc1ccc(Nc2nc(Nc3ccc4ccn(CC(=O)OC)c4c3)ncc2F)cc1Cl [Compound 640, N4-[3-Chloro-4-(N-methylamino)carbonylmethyleneoxyphenyl]-5-fluoro-N2-[1-(methoxycarbonylmethylene)indol-6-yl]-2,4-pyrimidinediamine] | < 10 | < 10 | > 10 | – | – | –
COC(=O)Cn1ccc2ccc(Nc3ncc(F)c(Nc4ccc(Cl)c(OC)c4)n3)cc21 [Compound 641, N4-(4-Chloro-3-methoxyphenyl)-5-fluoro-N2-[1-(methoxycarbonylmethylene)indol-6-yl]-2,4-pyrimidinediamine] | < 10 | < 10 | < 10 | – | – | –
COC(=O)Cn1ccc2ccc(Nc3ncc(F)c(Nc4ccc5c(c4)OCCO5)n3)cc21 [Compound 642, N4-(3,4-Ethylenedioxyphenyl)-5-fluoro-N2-[1-(methoxycarbonylmethylene)indol-6-yl]-2,4-pyrimidinediamine] | < 10 | < 10 | > 10 | – | – | –
COC(=O)Cn1ccc2cc(Nc3ncc(F)c(Nc4ccc5c(c4)NC(=O)C(C)(C)O5)n3)ccc21 [Compound 643, N4-(2,2-Dimethyl-3-oxo-4H-benz[1,4]oxazin-6-yl)-5-fluoro-N2-[1-(methoxycarbonylmethylene)indol-5-yl]-2,4-pyrimidinediamine] | < 10 | < 10 | > 10 | – | – | –
CNC(=O)COc1ccc(Nc2nc(Nc3ccc4c(ccn4CC(=O)OC)c3)ncc2F)cc1Cl [Compound 644, N4-[3-Chloro-4-(N-methylamino)carbonylmethyleneoxyphenyl]-5-fluoro-N2-[1-(methoxycarbonylmethylene)indol-5-yl]-2,4-pyrimidinediamine] | < 10 | < 10 | > 10 | – | – | –
COC(=O)Cn1ccc2cc(Nc3ncc(F)c(Nc4ccc(OC)c(Cl)c4)n3)ccc21 [Compound 646, N4-(3-Chloro-4-methoxyphenyl)-5-fluoro-N2-[1-(methoxycarbonylmethylene)indol-5-yl]-2,4-pyrimidinediamine] | < 10 | < 10 | > 10 | – | – | –
COC(=O)Cn1ccc2cc(Nc3ncc(F)c(Nc4ccc5c(c4)OCCO5)n3)ccc21 [Compound 647, N4-(3,4-Ethylenedioxyphenyl)-5-fluoro-N2-[1-(methoxycarbonylmethylene)indol-5-yl]-2,4-pyrimidinediamine] | < 10 | < 10 | > 10 | – | – | –

Second part, the molecule after the results:

IC50 [1, 3] [µM] | IC50 [1, 4] [µM] | IC50 [2] [µM] | IC50 [1, 5] [µM] | IC50 ([2]; Homo sapiens, Mast cell) [µM] | IC50 [1, 6] [µM] | Compound
< 10 | < 10 | < 10 | – | – | – | OCCOc1ccc(Nc2nc(Nc3ccc4[nH]ccc4c3)ncc2F)cc1Cl [Compound 623, N4-[3-Chloro-4-(2-hydroxyethyleneoxy)phenyl]-5-fluoro-N2-(indol-5-yl)-2,4-pyrimidinediamine]
< 10 | < 10 | > 10 | – | – | – | COc1cc(Nc2ncc(F)c(Nc3ccc(OCCO)c(Cl)c3)n2)ccc1Cl [Compound 624, N4-[3-Chloro-4-(2-hydroxyethyleneoxy)phenyl]-N2-(4-chloro-3-methoxyphenyl)-5-fluoro-2,4-pyrimidinediamine]
< 10 | < 10 | < 10 | – | – | – | CNC(=O)COc1ccc(Nc2nc(Nc3ccc4[nH]ccc4c3)ncc2F)cc1Cl [Compound 625, N4-[3-Chloro-4-(N-methylamino)carbonylmethyleneoxyphenyl]-5-fluoro-N2-(indol-5-yl)-2,4-pyrimidinediamine]
< 10 | < 10 | < 10 | – | – | – | COC(=O)COc1ccc(Nc2nc(Nc3ccc4cc[nH]c4c3)ncc2F)cc1Cl [Compound 631, N4-(3-Chloro-4-methoxycarbonylmethyleneoxyphenyl)-5-fluoro-N2-(indol-6-yl)-2,4-pyrimidinediamine]
< 10 | < 10 | > 10 | – | – | – | OCCOc1ccc(Nc2nc(Nc3ccc4cc[nH]c4c3)ncc2F)cc1Cl [Compound 632, N4-[3-Chloro-4-(2-hydroxyethyleneoxy)phenyl]-5-fluoro-N2-(indol-6-yl)-2,4-pyrimidinediamine]
< 10 | – | > 10 | – | – | – | Fc1cnc(Nc2cccc(-c3ncco3)c2)nc1Nc1ccc2c(c1)OC(F)(F)C(F)(F)O2 [Compound 633]
< 10 | < 10 | < 10 | – | – | – | CNC(=O)COc1c(C)cc(Nc2ncc(F)c(N(C)c3ccc4c(c3)OCCO4)n2)cc1C [Compound 635, N2-[3,5-Dimethyl-4-(N-methylamino)carbonylmethyleneoxyphenyl]-N4-(3,4-ethylenedioxyphenyl)-5-fluoro-N4-methyl-2,4-pyrimidinediamine]
< 10 | < 10 | < 10 | – | – | – | CNC(=O)COc1c(C)cc(Nc2ncc(F)c(N(C)c3ccc4c(c3)OC(F)(F)C(F)(F)O4)n2)cc1C [Compound 636, N2-[3,5-Dimethyl-4-(N-methylamino)carbonylmethyleneoxyphenyl]-5-fluoro-N4-methyl-N4-[3,4-(tetrafluoroethylenedioxy)phenyl]-2,4-pyrimidinediamine]
< 10 | – | > 10 | – | – | – | CNC(=O)COc1c(C)cc(Nc2ncc(F)c(Nc3ccc4c(c3)OC(F)(F)C(F)(F)O4)n2)cc1C [Compound 637, N2-[3,5-Dimethyl-4-(N-methylamino)carbonylmethyleneoxyphenyl]-5-fluoro-N4-[3,4-(tetrafluoroethylenedioxy)phenyl]-2,4-pyrimidinediamine]
< 10 | < 10 | < 10 | – | – | – | CNC(=O)COc1c(C)cc(Nc2ncc(F)c(N(C)c3cc(OC)cc(OC)c3)n2)cc1C [Compound 638, N2-[3,5-Dimethyl-4-(N-methylamino)carbonylmethyleneoxyphenyl]-N4-(3,5-dimethoxyphenyl)-5-fluoro-N4-methyl-2,4-pyrimidinediamine]
< 10 | < 10 | > 10 | – | – | – | COC(=O)Cn1ccc2ccc(Nc3ncc(F)c(Nc4ccc5c(c4)NC(=O)C(C)(C)O5)n3)cc21 [Compound 639, N4-(2,2-Dimethyl-3-oxo-4H-benz[1,4]oxazin-6-yl)-5-fluoro-N2-[1-(methoxycarbonylmethylene)indol-6-yl]-2,4-pyrimidinediamine]
